From PMC8562313, “Cytotoxicity of Amino‐BODIPY Modulated via Conjugation with 2‐Phenyl‐3‐Hydroxy‐4(1H)‐Quinolinones” (ChemistryOpen, 2021)
Like-named read-outs stand apart in the source and are kept apart here. One block for each compound: values may come before it.

Experiments:
[1] = tested on: cancer cell lines; conditions: cited from earlier work
[2] = tested on: A549 (lung adenocarcinoma); assay: Cytotoxic activity against A549; type: cell-based; conditions: Homo sapiens, average of at least three independent experiments
Procedure: (§1) Finally, the amino‐BODIPY 16 and all prepared conjugates 1–15 were tested for cytotoxic activity against selected cancer cell lines (Table 1). The tests were performed on cancer cell lines derived from solid tumors as well as hematological malignancies: CCRF‐CEM (acute lymphoblastic leukemia), K562 (chronic myeloid leukemia), A549 (lung adenocarcinoma), colorectal carcinoma cell lines HCT116 with and without functional p53 protein HCT116p53, respectively. The panel also included chemoresistant subclone CCRF‐CEM‐DNR (resistant to daunorubicine) overexpressing P‐glycoprotein and/or lung resistance‐related protein (LRP), which are pumps or detoxifying systems responsible for the most common forms of clinical resistance. To evaluate non‐tumor cells′ toxicity, we used human skin fibroblast cell line BJ and lung fibroblast cell line MRC‐5. […] This dye is also slightly toxic to normal fibroblast BJ and MRC with IC50>40 μM and low‐density seeding variants BJ‐LD and MRC‐LD with higher proliferation and no contact inhibition. Connection of amino‐BODIPY 16 with 3‐HQs via non‐cleavable maleimide linker (conjugates 6–10) as well as via cleavable linker (compounds 11–15) causes higher selectivity toward CCRF‐CEM lines. […] The selectivity of conjugates toward leukemia cells could be caused by interaction with a specific target for the CCRF‐CEM or K562 cells, respectively, or by particular transport to these cell lines. The later reason could explain the lower toxicity of amino‐BODIPY released from the conjugate compared to free amino‐BODIPY 16 directly applied to the cells.

[3] = tested on: MRC‐LD (low‐density seeding variant); assay: Toxicity to non-tumor fibroblasts MRC-LD; type: cell-based; conditions: Homo sapiens, Fibroblast, higher proliferation, no contact inhibition
Procedure: as §1

[4] = tested on: CCRF‐CEM (acute lymphoblastic leukemia); assay: Cytotoxic activity against CCRF-CEM; type: cell-based; conditions: Homo sapiens, average of at least three independent experiments
Procedure: as §1

[5] = tested on: BJ‐LD (low‐density seeding variant); assay: Toxicity to non-tumor fibroblasts BJ-LD; type: cell-based; conditions: Homo sapiens, Fibroblast, higher proliferation, no contact inhibition
Procedure: as §1

[6] = tested on: HCT116 (colorectal carcinoma); assay: Cytotoxic activity against HCT116; type: cell-based; conditions: Homo sapiens, HCT-116; average of at least three independent experiments
Procedure: as §1

[7] = tested on: K562‐TAX; assay: Cytotoxic activity against K562-TAX; type: cell-based; conditions: average of at least three independent experiments
[8] = tested on: lung fibroblast cell line MRC‐5; assay: Toxicity to non-tumor fibroblasts MRC; type: cell-based, human
Procedure: as §1

[9] = tested on: U2OS; assay: Cytotoxic activity against U2OS; type: cell-based; conditions: Homo sapiens, average of at least three independent experiments
[10] = tested on: CCRF‐CEM‐DNR (resistant to daunorubicine); assay: Cytotoxic activity against CEM-DNR; type: cell-based; conditions: Homo sapiens, daunorubicine-resistant subclone, average of at least three independent experiments
Procedure: as §1

[11] = tested on: skin fibroblast cell line BJ; assay: Toxicity to non-tumor fibroblasts BJ; type: cell-based, human
Procedure: as §1

[12] = tested on: HCT116p53 (colorectal carcinoma); assay: Cytotoxic activity against HCT116p53; type: cell-based; conditions: average of at least three independent experiments
Procedure: as §1

[13] = tested on: K562 (chronic myeloid leukemia); assay: Cytotoxic activity against K562; type: cell-based; conditions: Homo sapiens, average of at least three independent experiments
Procedure: as §1

[14] = GSH-mediated cleavage monitored by LC/MS; type: physicochemical; conditions: 5 mM GSH, 5 μM conjugate 11 in HEPES buffer, 7.4 pH, 37 °C
Source text: As reported previously, the GSH mediated cleavage of the disulfide linker results in the release of the 3‐HQ derivative together with the Amino‐BODIPY.[30] […] As the mechanism of GSH‐mediated cleavage and LC/MS analysis in Figure 2A and 2B depict nucleophilic thiol group on glutathione attacks the disulfide bond resulting in the formation of GSH adducts 19 and 20. Intermediate 19 further reacts with excess of GSH and self‐immolative linker is cyclized while free Amino‐BODIPY 16 is released.
Figure 2 (A) Mechanism of GSH‐mediated cleavage of conjugate 11 (5 mM GSH, 5 μM conjugate 11 in HEPES buffer, 7.4 pH, 37 °C). (B) Time‐dependent stability of compounds 1, 11, 16, 19 and 20 monitored by LC/MS. (C) Excitation/emission spectra of the conjugate 11 and the released Amino‐BODIPY 16 enabling the OFF‐ON fluorescence effect when excitation at 485 nm and emission at 530 nm is applied.

[15] = Homo sapiens, MRC5, non-tumor lung fibroblasts

SMILES: NC(=O)c1cc(-c2[nH]c3ccccc3c(=O)c2O)ccc1N1CCCCC1 [2‐(3‐carboxamide‐4‐piperid‐1‐ylphenyl)‐3‐hydroxy‐4(1H)‐quinolinone]
Activity and selectivity toward cancer cells [1]: significant activity and increased selectivity

SMILES: O=c1c(O)c(-c2ccc(N3CCCCC3)c([N+](=O)[O-])c2)[nH]c2ccccc12 [2‐(3‐nitro‐4‐piperid‐1‐ylphenyl)‐3‐hydroxy‐4(1H)‐quinolinone]
Activity and selectivity against cancer cell lines [1]: significant activity but low selectivity

SMILES: Nc1c(Cl)cc(-c2[nH]c3ccccc3c(=O)c2O)cc1Cl [2‐(4‐amino‐3,5‐dichlorophenyl)‐3‐hydroxy‐4(1H)‐quinolinone]
Activity against various cancer cell lines ([1]; reported previously, no reference given): active

SMILES: O=c1c(O)c(-c2ccc(F)cc2)[nH]c2ccccc12 [2‐(4‐fluorophenyl)‐3‐hydroxy‐4(1H)‐quinolinone]
Cytotoxicity against cancer cells [1]: low cytotoxicity

SMILES: O=c1c(O)c(-c2ccccc2)[nH]c2ccccc12 [2‐phenyl‐3‐hydroxy‐4(1H)‐quinolinone]
Activity against cancer cells [1]: no activity

SMILES: Cc1cc(C)n2c1C=C1C=CC(NC(=O)OCCCN3C(=O)CC(SCC(NC(=O)c4ccc5c(=O)c(O)c(-c6ccccc6)[nH]c5c4)C(N)=O)C3=O)=[N+]1[B-]2(F)F (stereo not drawn) [Compound 6]
IC50 [2]: > 50 µM | IC50 [3]: > 50 µM | IC50 [4]: 14.6 µM | IC50 [5]: > 50 µM | IC50 [6]: > 50 µM | IC50 [7]: > 50 µM | IC50 [8, 15]: > 50 µM | IC50 [9]: > 50 µM | IC50 [10]: > 50 µM | IC50 ([11]; Homo sapiens, Skin fibroblast): > 50 µM | IC50 [12]: > 50 µM | IC50 [13]: > 50 µM

SMILES: Cc1cc(C)n2c1C=C1C=CC(NC(=O)OCCCN3C(=O)CC(SCC(NC(=O)c4ccc5c(=O)c(O)c(-c6ccc(F)cc6)[nH]c5c4)C(N)=O)C3=O)=[N+]1[B-]2(F)F (stereo not drawn) [Compound 7]
IC50 [2]: > 50 µM | IC50 [3]: > 50 µM | IC50 [4]: 6.37 µM | IC50 [5]: > 50 µM | IC50 [6]: > 50 µM | IC50 [7]: > 50 µM | IC50 [8, 15]: > 50 µM | IC50 [9]: > 50 µM | IC50 [10]: > 50 µM | IC50 ([11]; Homo sapiens, Skin fibroblast): > 50 µM | IC50 [12]: > 50 µM | IC50 [13]: > 50 µM

SMILES: Cc1cc(C)n2c1C=C1C=CC(NC(=O)OCCCN3C(=O)CC(SCC(NC(=O)c4ccc5c(=O)c(O)c(-c6cc(Cl)c(N)c(Cl)c6)[nH]c5c4)C(N)=O)C3=O)=[N+]1[B-]2(F)F (stereo not drawn) [Compound 8]
IC50 [2]: > 50 µM | IC50 [3]: > 50 µM | IC50 [4]: 12.7 µM | IC50 [5]: > 50 µM | IC50 [6]: > 50 µM | IC50 [7]: > 50 µM | IC50 [8, 15]: > 50 µM | IC50 [9]: > 50 µM | IC50 [10]: > 50 µM | IC50 ([11]; Homo sapiens, Skin fibroblast): > 50 µM | IC50 [12]: > 50 µM | IC50 [13]: > 50 µM

SMILES: Cc1cc(C)n2c1C=C1C=CC(NC(=O)OCCCN3C(=O)CC(SCC(NC(=O)c4ccc5c(=O)c(O)c(-c6ccc(N7CCCCC7)c([N+](=O)[O-])c6)[nH]c5c4)C(N)=O)C3=O)=[N+]1[B-]2(F)F (stereo not drawn) [Compound 9]
IC50 [2]: > 50 µM | IC50 [4]: > 50 µM | IC50 [6]: > 50 µM | IC50 [7]: > 50 µM | IC50 [8, 15]: > 50 µM | IC50 [9]: > 50 µM | IC50 [10]: > 50 µM | IC50 ([11]; Homo sapiens, Skin fibroblast): > 50 µM | IC50 [12]: > 50 µM | IC50 [13]: 4.05 µM

SMILES: Cc1cc(C)n2c1C=C1C=CC(NC(=O)OCCCN3C(=O)CC(SCC(NC(=O)c4ccc5c(=O)c(O)c(-c6ccc(N7CCCCC7)c(C(N)=O)c6)[nH]c5c4)C(N)=O)C3=O)=[N+]1[B-]2(F)F (stereo not drawn) [Compound 10]
IC50 [2]: > 50 µM | IC50 [3]: > 50 µM | IC50 [4]: 5.1 µM | IC50 [5]: > 50 µM | IC50 [6]: > 50 µM | IC50 [7]: 49.6 µM | IC50 [8, 15]: > 50 µM | IC50 [9]: > 50 µM | IC50 [10]: > 50 µM | IC50 ([11]; Homo sapiens, Skin fibroblast): > 50 µM | IC50 [12]: > 50 µM | IC50 [13]: > 50 µM

SMILES: Cc1cc(C)n2c1C=C1C=CC(NC(=O)OCCSSCC(NC(=O)c3ccc4c(=O)c(O)c(-c5ccccc5)[nH]c4c3)C(N)=O)=[N+]1[B-]2(F)F (stereo not drawn) [Compound 11]
IC50 [2]: 49.9 µM | IC50 [3]: > 50 µM | IC50 [4]: 19.7 µM | IC50 [5]: > 50 µM | IC50 [6]: > 50 µM | IC50 [7]: 39.8 µM | IC50 [8, 15]: > 50 µM | IC50 [9]: > 50 µM | IC50 [10]: 34.4 µM | IC50 ([11]; Homo sapiens, Skin fibroblast): > 50 µM | IC50 [12]: > 50 µM | IC50 [13]: 49.8 µM

SMILES: Cc1cc(C)n2c1C=C1C=CC(NC(=O)OCCSSCC(NC(=O)c3ccc4c(=O)c(O)c(-c5ccc(F)cc5)[nH]c4c3)C(N)=O)=[N+]1[B-]2(F)F (stereo not drawn) [Compound 12]
IC50 [2]: 46.4 µM | IC50 [3]: > 50 µM | IC50 [4]: 8.14 µM | IC50 [5]: > 50 µM | IC50 [6]: > 50 µM | IC50 [7]: 33.6 µM | IC50 [8, 15]: > 50 µM | IC50 [9]: 42.3 µM | IC50 [10]: 26.5 µM | IC50 ([11]; Homo sapiens, Skin fibroblast): > 50 µM | IC50 [12]: 49.8 µM | IC50 [13]: 44.6 µM

SMILES: Cc1cc(C)n2c1C=C1C=CC(NC(=O)OCCSSCC(NC(=O)c3ccc4c(=O)c(O)c(-c5cc(Cl)c(N)c(Cl)c5)[nH]c4c3)C(N)=O)=[N+]1[B-]2(F)F (stereo not drawn) [Compound 13]
IC50 [2]: > 50 µM | IC50 [3]: > 50 µM | IC50 [4]: 2.59 µM | IC50 [5]: > 50 µM | IC50 [6]: > 50 µM | IC50 [7]: 41.8 µM | IC50 [8, 15]: > 50 µM | IC50 [9]: > 50 µM | IC50 [10]: 40.1 µM | IC50 ([11]; Homo sapiens, Skin fibroblast): > 50 µM | IC50 [12]: > 50 µM | IC50 [13]: 41.4 µM

SMILES: Cc1cc(C)n2c1C=C1C=CC(NC(=O)OCCSSCC(NC(=O)c3ccc4c(=O)c(O)c(-c5ccc(N6CCCCC6)c([N+](=O)[O-])c5)[nH]c4c3)C(N)=O)=[N+]1[B-]2(F)F (stereo not drawn) [Compound 14]
IC50 [2]: 46.3 µM | IC50 [3]: > 50 µM | IC50 [4]: 1.52 µM | IC50 [5]: > 50 µM | IC50 [6]: 39.7 µM | IC50 [7]: 40.6 µM | IC50 [8, 15]: > 50 µM | IC50 [9]: 44.1 µM | IC50 [10]: 37.9 µM | IC50 ([11]; Homo sapiens, Skin fibroblast): > 50 µM | IC50 [12]: 42.6 µM | IC50 [13]: 29.9 µM

SMILES: Cc1cc(C)n2c1C=C1C=CC(NC(=O)OCCSSCC(NC(=O)c3ccc4c(=O)c(O)c(-c5ccc(N6CCCCC6)c(C(N)=O)c5)[nH]c4c3)C(N)=O)=[N+]1[B-]2(F)F (stereo not drawn) [Compound 15]
IC50 [2]: > 50 µM | IC50 [3]: > 50 µM | IC50 [4]: > 50 µM | IC50 [5]: > 50 µM | IC50 [6]: > 50 µM | IC50 [7]: 46.2 µM | IC50 [8, 15]: > 50 µM | IC50 [9]: > 50 µM | IC50 [10]: 46.2 µM | IC50 ([11]; Homo sapiens, Skin fibroblast): > 50 µM | IC50 [12]: > 50 µM | IC50 [13]: > 50 µM

SMILES: Cc1cc(C)n2c1C=C1C=CC(N)=[N+]1[B-]2(F)F [Compound 16, amino‐BODIPY]
IC50 [2]: 47.2 µM | IC50 [3]: 26.9 µM | IC50 [4]: 4.25 µM | IC50 [5]: 28.1 µM | IC50 [6]: 11.6 µM | IC50 [7]: 6.41 µM | IC50 [8, 15]: > 40 µM | IC50 ([8]; non-tumor lung fibroblasts): 40.1 µM | IC50 [9]: 19.8 µM | IC50 [10]: 5.08 µM | IC50 [11]: 49.7 µM | IC50 ([11]; Homo sapiens, Skin fibroblast): > 40 µM | IC50 [12]: 12.7 µM | IC50 [13]: 3.29 µM

Stability of cleavage intermediate by LC/MS [14]: relatively stable
SMILES: NC(=O)C(CSSC[C@H](NC(=O)CC[C@H](N)C(=O)O)C(=O)NCC(=O)O)NC(=O)c1ccc2c(=O)c(O)c(-c3ccccc3)[nH]c2c1 (stereo partly drawn) [Compound 20]
